Consider 1 molecule from patent US4238472A, “Radioimmunoassay for chlorinated dibenzo-p-dioxins” (priority 1978, dated 1980).

Data set [1] deals with antiserum F-12. Kind of data set: Specificity / cross reactivity of the radioimmunoassay, antiserum F-12. The data set is classed as binding, rabbit. An excerpt: (§1) Since TCDD itself has no chemically reactive functional groups, a derivative was synthesized that retained most of the structural features of TCDD but with the addition of a reactive site. This derivative was coupled to an immunogenic protein carrier, such as bovine serum albumin, rabbit serum albumin, etc., so that animals would respond to it by producing an antiserum containing antibodies. A second compound was synthesized, still structurally similar to TCDD so that it would bind to the antibodies, but capable of being labeled with ^125 I for detectability at the picogram level. An amount of antiserum capable of binding about 20 pg of ^125 I-labeled dioxin derivative (hapten) is preincubated with the detergent emulsion of the sample extract (possibly containing TCDD). Then the mixture is incubated with the ^125 I-labeled derivative long enough for equilibrium binding to occur and form the hapten-antibody complex. A second antibody, namely, goat antibodies against rabbit gamma-globulin (i.e., goat anti-rabbit γ-globulin) are then added to precipitate the antibody ^125 I-labeled dioxin complex, and the amount of ^125 I in the precipitate is determined. The extent to which preincubation with the test material inhibits or decreases the amount of ^125 I precipitated relative to the amount precipitated in the absence of test material is a measure of the amount of chlorodibenzodioxin in the test sample.
(§2) Radioimmunoassay of small molecules requires some means of separating free hapten from antibody-bound hapten. The procedure used in the present invention, chosen because of its compatibility with detergent-solubilized hapten, involved precipitating the antibody-hapten complex with a second antibody, namely, goat antibodies against rabbit gamma-globulin. In this assay chlorodibenzodioxin from the environmental sample completes with the ^125 I-labeled hapten for binding to the antibody. Thus, the decrease in precipitation of radioactivity is a measure of the amount of (unlabeled) hapten in the test sample.
(§3) The assay buffer (hereinafter referred to as "PBS") contained, per liter, 20 mmol of potassium phosphate, 140 mmol of NaCl, and 200 mg of sodium azide. The pH was adjusted to 7.3 with NaOH. Antiserum was diluted with PBS also containing 0.1% bovine gamma globulin and 0.02% rabbit gamma globulin (w/v). Each assay tube from procedure G above received 0.2 ml of PBS, after which the tubes were held in the sonicator for 40 minutes and then cooled to room temperature. Appropriately diluted antiserum or, as control, antiserum diluant was added (0.2 ml) and, after vortex-mixing, the tubes were incubated for 40 minutes at 37°. 14000 disintegrations per minute (hereafter referred to as "DPM") or 7000 counts per minute (hereinafter referred to as "CPM", which equals DPM×counting efficiency) of [^125 I]-iodovaleramide derivative of trichlorodibenzo-p-dioxin in PBS containing 1% "Cutscum" were then added to each tube (approximately 10 μl), vortex mixed, and the tubes incubated for 1 hour at 37° followed by an additional 65 hours of incubation at 4°. Each tube next received 1.24 units of goat anti-rabbit gamma globulin in 0.2 ml of PBS containing 0.05 mM ethylenediamine tetracetic acid (hereinafter referred to as "EDTA"), was vortex mixed, and incubated for 5 hours at 4°. The tubes were centrifuged at 500×g for 20 minutes at 4°. The supernates were poured off and the tubes allowed to drain into Whatman #3 MM paper for 10 minutes. The precipitate or pellets obtained were then radioassayed for ^125 I, with 10 minute count cycles.
(§4) Standard curves were prepared using sequential two-fold dilutions of TCDD or other test compounds in benzene and evaporating the solvent as described above. Both control (blank) and TCDD-spiked tissues were extracted and processed as described above to determine general interference and recoveries. All samples were run in triplicate. […]

For data set [2], the system named is antiserum GC-5. Kind of data set: Cross reactivity in chlorinated DBD radioimmunoassay, antiserum GC-5. The class given is binding, rabbit.
From the text: as §1, §2, §3, §4

Data set [3] in a line: Determination of 2,3,7,8-TCDD in monkey tissue by radioimmunoassay. The class given is in vivo, Rhesus Monkeys (Macaca muletta). As to conditions: antiserum F12, "Cutscum". How it is done:
Blend 10 g of tissue in 200 ml of chloroform:methanol, 2:1 (v/v). Filter with suction through glass fiber filter paper (Reeve Angel grade 934AH or equivalent). Return the filter paper and cake to the blender jar and blend with 100 ml of chloroform:methanol, 2:1 (v/v). Filter as above ad combine filtrates. Add 52 ml of 1.2% aqueous KCl, mix well, let phases clear, and collect the lower phase in a 500 ml round bottom flask. Evaporate just to dryness at 40° using a rotary evaporator and water aspirator. This is a modification of the method of Folch et al [J.Biol.Chem.,236,497 (1957)].
Grind together 8 g of anhydrous sodium sulfate per gram of adipose, using a mortar and pestle. Extract the resulting powder with chloroform in a Soxhlet extractor, allowing at least 8 cycles.
Leach the lipid residue from 10 g of liver, 100 ml of blood or 1 g of adipose into 15 ml of CCl4. Partition against 15 ml of con.H2 SO4. Centrifuge at 2000 rpm for 30 minutes. Remove as much of the CCl4 layer as possible and record the volume recovered. Pass the CCl4 solution through anhydrous Na2 CO3 in a glass wool-plugged funnel, rinising the Na2 CO3 with 2 ml of fresh CCl4. Concentrate the filtrate just to dryness on a rotary evaporator at 40°. Leach the residue into 1.5 ml of n-hexane:methylene chloride, 97:3 (v/v).
as §3, with “Each tube next received 1.24 units of goat anti-rabbit gamma globulin in 0.2 ml of PBS containing 0.05 mM ethylenediamine tetracetic acid (hereinafter referred to as "EDTA"), was vortex mixed, and incubated for 5 hours at 4°. The tubes were centrifuged at 500×g for 20 minutes at 4°. The supernates were poured off and the tubes allowed to drain into Whatman #3 MM paper for 10 minutes. The precipitate or pellets obtained were then radioassayed for ^125 I, with 10 minute count cycles.” left out
Using spiked, sandy soil samples, the inventors were able to detect 0.7 picomole of 2,3,7,8-TCDD using "Cutsum" and either antiserum. With "Triton X-305" replacing the "Cutscum", as little as 0.08 picomole of 2,3,7,8-TCDDcould be detected. […]

Data set [4] is described as follows: Determination of 2,3,7,8-TCDD in monkey tissue by gas chromatography with negative ion mass spectrometry. The class given is in vivo, Rhesus Monkeys (Macaca muletta). The text has this: (§5) Using spiked, sandy soil samples, the inventors were able to detect 0.7 picomole of 2,3,7,8-TCDD using "Cutsum" and either antiserum. With "Triton X-305" replacing the "Cutscum", as little as 0.08 picomole of 2,3,7,8-TCDDcould be detected. These levels of sensitivity required that a dilution of antiserum (usually about 1:9000) be used that would bind 33% of the ^125 I-labeled hapten. To test the applicability of this assay to tissue samples, the inventors obtained liver and adipose samples from monkeys that had been used in a toxicity study involving 2,3,7,8-TCDD [as described by E. E.McConnell et al in "Toxicity of 2,3,7,8-tetrachlorodibenzo-p-dioxin in Rhesus Monkeys (Macaca muletta) Following a Single Oral Dose", appearing in Toxicol. Appl. Pharmacol. 43/1,175-187(1978)]. Sample size ranged from 3 to 50 mg of tissue for the radioimmunoassay, while 200 mg samples were used for comparison assays by gas chromatography with either negative chemical ionization mass spectrometry [as described by J. R. Hass et al in "Determination of Polychlorinated Dibenzo-p-Dioxins in Biological Samples by Negative Chemical Ionization Mass Spectrometry", appearing in Anal. Chem. 50/11, 1471-1479 (1978)], or an electron capture detector as measuring device.
(§6) ^a Monkeys 373 and 374 were controls and dosed orally with corn oil
alone. Monkeys 380 and 391 were experimental and received a single oral […]

A short description of data set [5]: Determination of 2,3,7,8-TCDD in monkey tissue by gas chromatography with electron capture detector. The data set is classed as in vivo, Rhesus Monkeys (Macaca muletta).
From the text: as §5, §6
alone. Monkeys 380 and 391 were experimental and received a single oral
dose of 70 μg/kg or 350 μg/kg TCDD in corn oil, respectively.
GCEC = Gas chromatography with electron capture detector.

The test system of data set [6] is guinea pig. As to conditions: cited from earlier work.
[7] abbreviates: monkey 380, adipose, single oral dose 70 μg/kg.
[8] abbreviates: monkey 380, liver, single oral dose 70 μg/kg.
Setting [9] is: monkey 391, adipose, single oral dose 350 μg/kg.
Setting [10] is: monkey 391, liver, single oral dose 350 μg/kg.

As for `Clc1cc2c(cc1Cl)Oc1cc(Cl)c(Cl)cc1O2` [2,3,7,8-TCDD, 2,3,7,8-tetrachlorodibenzo-p-dioxin], the “reactivity with F-12 (2,3,7,8-tetrachlorodibenzo-p-dioxin v 2,3,7,8-tetrachlorodibenzofuran)” value in data set [1] was “approximately the same reactivity”. The “Cross Reactivity, Antiserum F-12: 100 × (inhibition of 125I binding by 4 pmole of test compound)/(inhibition by 4 pmole of 2,3,7,8-TCDD)” value in data set [1] (4 pmole) is 100%. In data set [2], the “binding by the antibodies in GC-5” value is “Essentially all of these antibodies (in GC-5) also bind 2,3,7,8-TCDD”. In data set [2] (4 pmole), the “Cross Reactivity, Antiserum GC-5: 100 × (inhibition of 125I binding by 4 pmole of test compound)/(inhibition by 4 pmole of 2,3,7,8-TCDD)” value was 100%. Also, the “maximum inhibition of binding of 125I-labeled hapten” value in data set [2] (GC-5 diluted such that 33% of the label was bound in the absence of competitors) is listed as “up to 97%”. The “TCDD in tissue, RIA” value in data set [3] (setting [7]) was found to be 41 ppb; in data set [3] (setting [8]), 20 ppb; in data set [3] (setting [9]) it was 1800 ppb; in data set [3] (setting [10]) it was 94 ppb. Besides, the “TCDD in tissue, GM-MS” value in data set [4] (setting [7]) is recorded as 28 ppb; in data set [4] (setting [9]), 1740 ppb. Besides, the “TCDD in tissue, GC-EC” value in data set [5] (setting [7]) came to 87 ppb; in data set [5] (setting [8]), 17 ppb; in data set [5] (setting [9]) it was 1810 ppb; in data set [5] (setting [10]) it was 30 ppb. Further, the “acute oral LD50” value in data set [6] is listed as “less than 1 microgram per kg”.
